Data reported in paper PMC12508063, “Chloroindazole based estrogen receptor β ligands with favorable pharmacokinetics promote functional remyelination and visual recovery” (Scientific Reports, 2025).

Columns and labels:
[1] = tested on: EAE mice; assay: Optical coherence tomography (RNFL thickness) in EAE; type: in vivo, mouse; details: vs EAE + V
Procedure: Optical coherence tomography, electroretinograms and visual evoked potentials: OCT was acquired using the spectral domain‐OCT (R2200 840 nm HHP; Leica, Deerfield, IL) at peak EAE disease according to previously published methods[23],[28]. Each image was taken 3 times and averaged. Automatic segmentation of retinal layers was performed using Bioptigen Diver 3.0 software (Leica Microsystems, Deerfield, IL). ERG and VEPs were measured using the HMsERG200 ([…], Henderson, NV) as previously described[23],[28]. Animals were dark adapted for a minimum of 5 h prior to recording. During acquisition, animals were anesthetized with continuous 2% isoflurane. Traces were averaged and filtered for 60 Hz noise and a low-pass filter. MATLAB was used to adjust baselines and smoothed prior to measuring ERG and VEP amplitudes and latencies.
Optical coherence tomography: OCT was acquired using the spectral domain‐OCT (R2200 840 nm HHP; Leica, Deerfield, IL) at peak EAE disease according to previously published methods(8, 9). Each image was taken 3 times and averaged. Automatic segmentation of retinal layers was performed using Bioptigen Diver 3.0 software (Leica Microsystems, Deerfield, IL).

[2] = tested on: Human iPSC-derived OPCs (Tempo's iOligo); assay: Differentiation of human iPSC-derived OPCs (Tempo iOligo), MBP; type: cell-based; details: human OLs, 10 nM, 18 days
Excerpt: Mouse and Human primary cell cultures: Primary OPC/OL culture were isolated from the cortices of postnatal day 0–1 C57BL/6J mice of both sexes, using established protocols[11],[20],[21]. Mouse OPC and Neuronal Co-cultures: Primary neuronal cultures were established in Neurobasal medium with B27 and plated on poly-L-lysine-coated coverslips. After 12 days, OPCs were isolated, counted, and added to neuronal cultures and media was replaced with neuronal and proliferation media for 3 days, then switched to maturation media that maintained both neurons and OLs. Human iPSC-derived OPCs (Tempo’s iOligo™) were expanded, cryopreserved, and later plated on Matrigel-coated coverslips. After 3 days in growth medium, cells were treated for 3 weeks with T3 containing maturation medium. Differentiation into myelin-producing OLs was assessed using O4 (OL surface marker on pre-OLs) and myelin basic protein (MBP) immunohistochemistry. In all conditions compounds or vehicle were added to culture during differentiation for either 5 days (mouse) or 18 days (human). […]
Tempo’s iOligo (OPC) cells form branched bipolar and tripolar structures when cultured as a monolayer and express OL markers, including O4, NG2, and CNPase. […] After plating human OPCs and allowing two days of growth in expansion media, the culture medium was switched to T3 + maturation medium and evaluated for MBP expression (Fig. 8i). […]

[3] = Oral PK of K102 at 40 mg/kg in female mice; type: in vivo, C57BL/6 mouse; details: female mouse, PO 40 mg/kg, mean
[4] = hepatocytes

| SMILES | RNFL thickness (OCT) [1] | MBP levels vs vehicle control [2] | AUCExtr [3] | AUCInf [3] | AUCInf/D [3] | AUClast [3] | Cmax [3] | MRTInf [3] | Tmax [3] | t1/2 [3] | Hepatocyte Stability (Human) CLint [4] | Hepatocyte Stability (Human) % Remaining (15 min) ([4]; 0.25 h) |
| --- | --- | --- | --- | --- | --- | --- | --- | --- | --- | --- | --- | --- |
| Cc1cc(O)ccc1-n1nc2ccc(O)cc2c1Cl [Compound K102, IndCl-o-Me] | prevented the significant reduction | significantly increased | 13.0% | 855 ng·h/mL | 21.4 kg·ng·h/mL/mg | 748 ng·h/mL | 945 ng/mL | 4.13 h | 0.250 h | 4.26 h | – | – |
| Oc1ccc(-n2nc3ccc(O)cc3c2Cl)c(O)c1 [Compound K110, IndCl-o-OH] | – | – | – | – | – | – | – | – | – | – | 12.69 µL/min/mg protein | 87.14% |
